Data as given in the supplement of paper PMC10307832.

How the values were obtained:
Assay in all cases: relative viability (nuclei count vs DMSO), 5 days (fraction); higher = more cells survive
[1] = compound: CCn1c(-c2nonc2N)nc2c(C#CC(C)(C)O)ncc(OC[C@H]3CCCNC3)c21 + CS(=O)(=O)N1CCN(Cc2cc3nc(-c4cccc5[nH]ncc45)nc(N4CCOCC4)c3s2)CC1 [Pictilisib] (partner 1 µM)
How it was run: (§1)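 Values are medians from duplicate plates. Each reflects relative viability, defined as the nuclei count of treated wells over that of vehicle wells. Lung cancer cell lines in 1536-well plates were pin-tool dosed one day after seeding with one drug alone or with a fixed anchor-drug dose plus five library-drug doses (not always all listed) in √10 steps, then fixed, stained and imaged at 4× after 5 days.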

[2] = compound: CCOC1=CC=CC=C1N=NC2=C(NN(C2=O)C3=NC(=CS3)C4=CC=CC=C4)C [BAM7] + CCNC(=O)c1noc(-c2cc(C(C)C)c(O)cc2O)c1-c1ccc(CN2CCOCC2)cc1 [Luminespib] (partner 0.01 µM)
How it was run: as §1

[3] = compound: CCOC1=CC=CC=C1N=NC2=C(NN(C2=O)C3=NC(=CS3)C4=CC=CC=C4)C [BAM7] + CC(=O)Nc1cccc(-n2c(=O)n(C3CC3)c(=O)c3c(Nc4ccc(I)cc4F)n(C)c(=O)c(C)c32)c1 [Trametinib] (partner 0.02 µM)
How it was run: as §1

[4] = compound: CCn1c(-c2nonc2N)nc2c(C#CC(C)(C)O)ncc(OC[C@H]3CCCNC3)c21 + O=C(c1cc(Cc2n[nH]c(=O)c3ccccc23)ccc1F)N1CCN(C(=O)C2CC2)CC1 [Olaparib] (partner 8 µM)
How it was run: as §1

| Cell Line | relative viability ([1]; first compound 0.01 µM) | relative viability ([1]; first compound 0.03162 µM) | relative viability ([1]; first compound 0.1 µM) | relative viability ([1]; first compound 0.3162 µM) | relative viability ([1]; first compound 1 µM) | relative viability ([2]; first compound 0.5 µM) | relative viability ([2]; first compound 5 µM) | relative viability ([2]; first compound 15.81 µM) | relative viability ([2]; first compound 50 µM) | relative viability ([3]; first compound 0.5 µM) | relative viability ([3]; first compound 5 µM) | relative viability ([3]; first compound 15.81 µM) | relative viability ([3]; first compound 50 µM) | relative viability ([4]; first compound 0.01 µM) | relative viability ([4]; first compound 0.03162 µM) | relative viability ([4]; first compound 0.1 µM) | relative viability ([4]; first compound 0.3162 µM) | relative viability ([4]; first compound 1 µM) |
| --- | --- | --- | --- | --- | --- | --- | --- | --- | --- | --- | --- | --- | --- | --- | --- | --- | --- | --- |
| NCI-H1792 | 0.322 | 0.276 | 0.252 | 0.233 | 0.249 | 0.501 | 0.46 | 0.421 | 0.509 | 0.46 | 0.462 | 0.401 | 0.362 | 0.53 | 0.502 | 0.473 | 0.374 | 0.589 |
| NCI-H1793 | 0.282 | 0.322 | 0.378 | 0.346 | 0.317 | 0.172 | 0.153 | 0.201 | 0.17 | 0.407 | 0.473 | 0.385 | 0.483 | 0.765 | 1.26 | – | 0.742 | 0.933 |
| NCI-H1915 | 0.977 | 0.941 | 0.957 | 0.871 | 0.979 | 0.769 | 0.886 | 0.833 | 0.76 | 0.333 | 0.317 | 0.272 | 0.323 | 0.258 | 0.277 | 0.225 | 0.249 | 0.255 |
| NCI-H1944 | 0.357 | 0.276 | 0.284 | 0.35 | 0.334 | 0.762 | 0.789 | 0.617 | 0.855 | 0.444 | 0.433 | 0.434 | 0.439 | 0.393 | 0.418 | 0.4 | 0.41 | 0.407 |
| NCI-H1975 | 0.335 | 0.255 | 0.314 | 0.235 | 0.261 | 0.206 | 0.219 | 0.209 | 0.189 | 0.329 | 0.366 | 0.332 | 0.415 | 0.745 | 0.809 | 0.837 | 0.784 | 0.757 |
| NCI-H1993 | 1.03 | 0.735 | 0.887 | 0.866 | 0.887 | 0.81 | 0.869 | 0.744 | 0.702 | 0.456 | 0.524 | 0.479 | 0.506 | 1.14 | 1.13 | 0.963 | 0.943 | 0.985 |
| NCI-H2009 | 0.89 | 0.855 | 0.745 | 0.798 | 0.752 | 1.05 | 1.06 | 1.04 | 0.979 | 0.265 | 0.229 | 0.268 | 0.283 | 0.655 | 0.673 | 0.682 | 0.685 | 0.75 |
| NCI-H2023 | 0.214 | 0.269 | 0.207 | 0.196 | 0.236 | 0.939 | 0.613 | 0.586 | 0.721 | 0.525 | 0.437 | 0.398 | 0.49 | 0.501 | 0.454 | 0.437 | 0.381 | 0.475 |
| NCI-H2085 | 0.436 | 0.437 | 0.373 | 0.404 | 0.462 | 0.436 | 0.376 | 0.503 | 0.372 | 0.587 | 0.521 | 0.471 | 0.52 | 0.758 | 0.807 | 0.795 | 0.755 | 0.725 |
| NCI-H2087 | 0.823 | 0.843 | 0.805 | 0.891 | 0.894 | 0.183 | 0.216 | 0.18 | 0.172 | 0.18 | 0.181 | 0.204 | 0.173 | 0.528 | – | 0.533 | 0.569 | 0.543 |
| NCI-H2126 | 0.548 | 0.496 | 0.494 | 0.442 | 0.449 | 0.891 | 0.86 | 0.76 | 0.954 | 0.516 | 0.499 | 0.519 | 0.476 | 0.917 | 0.927 | 0.977 | 0.893 | 0.95 |
| NCI-H2170 | 0.301 | 0.296 | 0.342 | 0.312 | 0.281 | 0.752 | 0.686 | 0.544 | 0.624 | 0.917 | 0.799 | 0.814 | 0.816 | 0.654 | 0.567 | 0.645 | 0.559 | 0.586 |
| NCI-H2228 | 0.295 | 0.386 | 0.347 | 0.216 | 0.294 | 0.136 | 0.116 | 0.145 | 0.153 | 0.601 | 0.523 | 0.41 | 0.547 | 0.701 | 0.895 | 0.847 | 0.541 | 0.55 |
| NCI-H2347 | 0.456 | 0.675 | 0.0164 | 0.858 | 0.472 | 0.592 | 0.416 | – | 0.516 | 0.326 | 0.32 | 0.277 | 0.287 | 0.567 | 0.512 | 0.6 | 0.608 | 0.549 |
| NCI-H2405 | 0.407 | 0.492 | – | 0.445 | 0.406 | 0.868 | 0.77 | 0.824 | 0.68 | 0.596 | 0.706 | 0.477 | 0.715 | 0.836 | 0.844 | 0.821 | 0.8 | 0.915 |
| NCI-H3122 | 0.606 | 0.612 | 0.634 | 0.598 | 0.55 | 0.0898 | 0.13 | 0.0656 | 0.0782 | 0.24 | 0.232 | 0.283 | 0.198 | 0.591 | 0.62 | 0.632 | 0.559 | 0.609 |
| PC-3 [JPC-3] | 0.754 | 0.744 | 0.762 | 0.695 | 0.643 | 0.683 | 0.771 | 0.612 | 0.636 | 0.592 | 0.722 | 0.637 | 0.617 | 1.07 | – | 1.15 | 1.03 | 1.09 |
| PC-14 | 0.633 | 0.754 | 0.75 | 0.72 | 0.564 | 0.208 | 0.16 | 0.152 | 0.143 | 0.829 | 0.745 | 0.542 | 0.697 | 0.309 | 0.244 | 0.34 | 0.378 | 0.412 |
